From US20220064138A1, “MACROLIDE BREFELDIN A ESTER DERIVATIVES AND USE THEREOF” (OCEAN UNIVERSITY OF CHINA, priority 2019, published 2022) come the findings set out here.

A value given as a limit tells only on which side of the number the result lay.

Common to all, as to experiment: Cell proliferation assay (CCK-8)
Assay type in all cases: cell-based

The subject of assay [1] is esophageal cancer Eca-109 cells. The conditions noted are these: Homo sapiens, Eca-109, 72 h. From the text:
(§1) CCK-8 method: The CCK-8 method is a highly sensitive, non-radioactive colorimetric assay for the determination of the number of viable cells in cell proliferation or cytotoxicity assays. The orange formazan dye produced by the bioreduction of CCK-8 by intracellular dehydrogenase is soluble in the cell culture medium, and the amount of formazan dye produced is proportional to the number of living cells. The kit used in this method is the tetrazolium salt-WST-8 (2-(2-methoxy-4-nitrophenyl)-3-(4-nitrophenyl)-5-(2,4-disulfophenyl)-2H-tetrazolium monosodium salt) developed by Dojindo Chemical Research Institute (Dojindo), which is capable of being reduced to a water-soluble formazan dye in the presence of the electronic carrier 1-Methoxy PMS.
(§2) Human cervical cancer Hela cells, pancreatic cancer PANC-1 cells, esophageal cancer Eca-109 cells, human leukemia K562 cells, human lung cancer A549 cells, human liver cancer HepG2 cells, human gastric cancer MKN-45 cells, human breast cancer MCF7 cells were cultured in DMEM medium containing 10% FBS (fetal bovine serum), 100 U/mL penicillin and 100 μg/ml streptomycin. Hepatocellular carcinoma cells Bel-7402 were cultured in RPMI-1640 medium containing 10% FBS (fetal bovine serum), 100 U/ml penicillin and 100 μg/ml streptomycin. All cells were placed in a cell culture incubator at 37° C. with 5% CO2. Cells fluid was changed every 3-5 days, and after 80% cell fusion, trypsin digestion and passaging were performed to keep the cells in good logarithmic growth phase.
(§3) All the samples to be tested were dissolved in DMSO.
(§4) Cells in logarithmic growth phase were inoculated in 96-well plates with 5000 cells/well respectively, and after 24 h of incubation, samples were added (final concentrations as shown in the table), and biplicate wells were set up for each sample. The amount of solvent of DMSO was not higher than 2‰. After 72 h, 10 μL of CCK-8 solution was added to each well and incubated for 1.5˜3 h at 37° C. The OD value at 450 nm was measured on an plate reader.
(§5) Inhibition rate (%)=(1−[(OD450 dosed well−OD450 blank well)/(OD450 control well−OD450 blank well)])×100%
(§6) The fitted IC50 values were calculated using the log (inhibitor) vs. response-Variable slop analysis method in GraphPad Prism software.

In assay [2] the test system is Human cervical cancer Hela cells. The conditions noted are these: 72 h.
Excerpt: as §1, §2, §3, §4, §5, §6

Assay [3] relates to human leukemia K562 cells. The settings on record: K562, 72 h.
Excerpt: as §1, §2, §3, §4, §5, §6

In assay [4] the test system is human lung cancer A549 cells. The settings on record: A549, 72 h.
Excerpt: as §1, §2, §3, §4, §5, §6

For assay [5], the system named is human breast cancer MCF7 cells. The conditions noted are these: MCF7, 72 h.
Excerpt: as §1, §2, §3, §4, §5, §6

Assay [6] relates to pancreatic cancer PANC-1 cells. The settings on record: Homo sapiens, PANC-1, 72 h.
Excerpt: as §1, §2, §3, §4, §5, §6

Assay [7] concerns human gastric cancer MKN-45 cells. The conditions noted are these: MKN-45, 72 h.
Excerpt: as §1, §2, §3, §4, §5, §6

Assay [8] concerns human liver cancer HepG2 cells. The conditions noted are these: HepG2, 72 h.
Excerpt: as §1, §2, §3, §4, §5, §6

For the compound `C[C@H]1CCC/C=C/[C@@H]2C[C@H](OC(=O)/C=C/c3ccccc3F)C[C@H]2[C@H](O)/C=C/C(=O)O1` [Compound 2a, 7-O-(2-fluorocinnamic acid)acyl BFA], the IC50 (usually the midpoint of a concentration-inhibition curve) in assay [1] lay in the range of 1000 to 10000 nM; in assay [2], 1000 to 10000 nM; in assay [3], 100 to 1000 nM; in assay [4], 100 to 1000 nM; in assay [5], 100 to 1000 nM; in assay [6] it was 100 to 1000 nM. Also, the IC50 in assay [7] and in assay [8] was 100 to 1000 nM each time.
For `C[C@H]1CCC/C=C/[C@@H]2C[C@H](OC(=O)/C=C/c3cnc4ccccc4c3)C[C@H]2[C@H](O)/C=C/C(=O)O1` [Compound 17a, 7-O-(3-(quinoline-3-yl)acrylic acid)acyl BFA], the IC50 in assay [1] is 100 to 1000 nM; in assay [2], 100 to 1000 nM; in assay [3], 100 to 1000 nM; in assay [4] it was 100 to 1000 nM; in assay [5], 100 to 1000 nM; in assay [6], less than 100 nM. For the same compound, the IC50 in assay [7] is 100 to 1000 nM; in assay [8], less than 100 nM.
With `Cc1cccc(/C=C/C(=O)O[C@@H]2C[C@@H]3[C@H](/C=C/CCC[C@H](C)OC(=O)/C=C/[C@H]3OC(=O)/C=C/c3cccc(C)c3)C2)c1` [Compound 6c, 4,7-O-bis(3-methylcinnamic acid)acyl BFA], the IC50 in assay [1] lay in the range of 100 to 1000 nM; in assay [2], 1000 to 10000 nM; in assay [3], 1000 to 10000 nM; in assay [4], 1000 to 10000 nM; in assay [5], 1000 to 10000 nM; in assay [6] it was 1000 to 10000 nM. Besides, the IC50 was 100 to 1000 nM in assay [7] and 1000 to 10000 nM in assay [8].
As to `C[C@H]1CCC/C=C/[C@@H]2C[C@H](OC(=O)/C=C/c3cccc(Cl)c3)C[C@H]2[C@H](O)/C=C/C(=O)O1` [Compound 5a, 7-O-(3-chlorocinnamic acid)acyl BFA], the IC50 in assay [1] lay within 1000 to 10000 nM; in assay [2], 100 to 1000 nM; in assay [3], 100 to 1000 nM; in assay [4], 100 to 1000 nM; in assay [5] it was 100 to 1000 nM; in assay [6], 100 to 1000 nM. The IC50 in assay [7] and in assay [8] was 100 to 1000 nM in each case.
In the case of `C[C@H]1CCC/C=C/[C@@H]2C[C@H](OC(=O)/C=C/c3ccc4c(c3)OCO4)C[C@H]2C(OC(=O)/C=C/c2ccc3c(c2)OCO3)/C=C/C(=O)O1` (stereo partly shown) [Compound 9c, 4,7-O-bis((E)-3-(benzo[d][1,3]dioxa-5-yl)acrylic acid)acyl BFA], the IC50 in assay [1] lay within 1000 to 10000 nM; in assay [2], 1000 to 10000 nM; in assay [3], 100 to 1000 nM; in assay [4], 1000 to 10000 nM; in assay [5], 1000 to 10000 nM; in assay [6], 1000 to 10000 nM. For the same compound, the figures for the IC50 in assay [7] and in assay [8] were 100 to 1000 nM and 1000 to 10000 nM, respectively.
On to `C[C@H]1CCC/C=C/[C@@H]2C[C@H](OC(=O)/C=C/c3ccc4c(c3)OCO4)C[C@H]2[C@H](O)/C=C/C(=O)O1` [Compound 9a, 7-O—((E)-3-(benzo[d][1,3]dioxa-5-yl)acrylic acid)acyl BFA], for which the IC50 in assay [1] is 1000 to 10000 nM; in assay [2] it was 1000 to 10000 nM; in assay [3], 100 to 1000 nM; in assay [4] it was 100 to 1000 nM; in assay [5], 100 to 1000 nM; in assay [6], 100 to 1000 nM. Moreover, the IC50 lay within 100 to 1000 nM in assay [7] and 1000 to 10000 nM in assay [8].
For the compound `COc1cc(/C=C/C(=O)O[C@@H]2/C=C/C(=O)O[C@@H](C)CCC/C=C/[C@@H]3C[C@H](O)C[C@H]32)cc(OC)c1OC` [Compound 11b, 4-O-(3,4,5-trimethoxycinnamic acid)acyl BFA], the IC50 in assay [1] is 1000 to 10000 nM; in assay [2], 1000 to 10000 nM; in assay [3], 100 to 1000 nM; in assay [4], 100 to 1000 nM; in assay [5] it was 100 to 1000 nM; in assay [6], 100 to 1000 nM. Besides, the IC50 in assay [7] and in assay [8] was 100 to 1000 nM in each case.
Regarding `Cc1ccc(/C=C/C(=O)O[C@@H]2C[C@H]3[C@H](O)/C=C/C(=O)O[C@@H](C)CCC/C=C/[C@@H]3C2)cc1` [Compound 7a, 7-O-(4-methylcinnamic acid)acyl BFA], the concentration for half-maximal inhibition (IC50) lay within 1000 to 10000 nM in assay [1]; 1000 to 10000 nM in assay [2]; 1000 to 10000 nM in assay [3]; 100 to 1000 nM in assay [4]; 1000 to 10000 nM in assay [5]; 100 to 1000 nM in assay [6]. The concentration for half-maximal inhibition (IC50) in assay [7] lay in the range of 100 to 1000 nM; in assay [8], 1000 to 10000 nM.
Take `C[C@H]1CCC/C=C/[C@@H]2C[C@H](OC(=O)/C=C/c3cccc(Cl)c3)C[C@H]2[C@H](OC(=O)/C=C/c2cccc(Cl)c2)/C=C/C(=O)O1` [Compound 5c, 4,7-O-bis(3-chlorocinnamic acid)acyl BFA]: the concentration for half-maximal inhibition (IC50) in assay [1] was in the range of 1000 to 10000 nM; in assay [2] it was 100 to 1000 nM; in assay [3], 1000 to 10000 nM; in assay [4] it was 100 to 1000 nM; in assay [5] it was 1000 to 10000 nM; in assay [6] it was 1000 to 10000 nM. Besides, the concentration for half-maximal inhibition (IC50) lay within 100 to 1000 nM in assay [7] and 1000 to 10000 nM in assay [8].
Take `C[C@H]1CCC/C=C/[C@@H]2C[C@H](OC(=O)/C=C/c3ccc(F)cc3)C[C@H]2[C@H](OC(=O)/C=C/c2ccc(F)cc2)/C=C/C(=O)O1` [Compound 3c, 4,7-O-bis(4-fluorocinnamic acid)acyl BFA]: the IC50 in assay [1] lay in the range of 1000 to 10000 nM; in assay [2], 1000 to 10000 nM; in assay [3], 1000 to 10000 nM; in assay [4] it was 100 to 1000 nM; in assay [5] it was 1000 to 10000 nM; in assay [6], 100 to 1000 nM. Also, the half-maximal inhibitory concentration (IC50) in assay [7] and in assay [8] was 1000 to 10000 nM throughout.
On to `C[C@H]1CCC/C=C/[C@@H]2C[C@H](O)C[C@H]2[C@H](OC(=O)/C=C/c2ccc(F)cc2)/C=C/C(=O)O1` [Compound 3b, 4-O-(4-fluorocinnamic acid)acyl BFA], for which the half-inhibitory concentration (IC50) is 1000 to 10000 nM in assay [1]; 100 to 1000 nM in assay [2]; 100 to 1000 nM in assay [3]; 100 to 1000 nM in assay [4]; 100 to 1000 nM in assay [5]; 100 to 1000 nM in assay [6]. For the same compound, the IC50 in assay [7] and in assay [8] was 100 to 1000 nM in each case.
For the compound `Cc1ccc(/C=C/C(=O)O[C@@H]2/C=C/C(=O)O[C@@H](C)CCC/C=C/[C@@H]3C[C@H](O)C[C@H]32)cc1` [Compound 7b, 4-O-(4-methylcinnamic acid)acyl BFA], the IC50 in assay [1] fell in the range of 100 to 1000 nM; in assay [2], 1000 to 10000 nM; in assay [3], 1000 to 10000 nM; in assay [4] it was 100 to 1000 nM; in assay [5], 100 to 1000 nM; in assay [6], 100 to 1000 nM. Also, the IC50 in assay [7] and in assay [8] was 100 to 1000 nM in each case.
Turning to `C[C@H]1CCC/C=C/[C@@H]2C[C@H](O)C[C@H]2[C@H](OC(=O)/C=C/c2ccc(C(F)(F)F)cc2)/C=C/C(=O)O1` [Compound 13b, 4-O-(4-trifluoromethylcinnamic acid)acyl BFA], the IC50 in assay [1], in assay [2], in assay [3], in assay [4], in assay [5] and in assay [6] was 100 to 1000 nM each time. Moreover, the IC50 in assay [7] and in assay [8] was 100 to 1000 nM throughout.
`C[C@H]1CCC/C=C/[C@@H]2C[C@H](O)C[C@H]2[C@H](OC(=O)/C=C/c2ccccc2Br)/C=C/C(=O)O1` [Compound 4b, 4-O-(2-bromocinnamic acid)acyl BFA]: the IC50 in assay [1], in assay [2], in assay [3], in assay [4], in assay [5] and in assay [6] was 100 to 1000 nM throughout. Further, the IC50 in assay [7] and in assay [8] was 100 to 1000 nM in each case.
